Reference: PubChem BioAssay AID256 (DTP/NCI, 2004)
“And” between values parts separate entries of the source, which are not always exact repeats. Identical values can stand only once. Inconclusive results and toxic doses are left out.

System: CD2F1 mice, L1210 leukemia ip, survival T/C
Assay: NCI In Vivo Anticancer Drug Screen. Data for tumor model L1210 Leukemia (intraperitoneal) in CD2F1 (CDF1) mice
Conditions: higher = longer survival
Outline: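 Implant tumor; dose compound or vehicle; measure endpoint in both groups; report treated divided by control.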

[1] = endpoint: mean survival time, dose: 50.0 mg/kg/injection, schedule: Q04DX003 (ip), vehicle: saline with Tween-80
[2] = endpoint: mean survival time, dose: 50.0 mg/kg/injection, schedule: Q04DX003 (ip), vehicle: saline
[3] = endpoint: mean survival time, dose: 100.0 mg/kg/injection, schedule: Q04DX003 (ip), vehicle: saline with Tween-80
[4] = endpoint: mean survival time, dose: 100.0 mg/kg/injection, schedule: Q04DX003 (ip), vehicle: saline
[5] = endpoint: mean survival time, dose: 200.0 mg/kg/injection, schedule: Q04DX003 (ip), vehicle: saline with Tween-80
[6] = endpoint: mean survival time, dose: 200.0 mg/kg/injection, schedule: Q04DX003 (ip), vehicle: saline
[7] = endpoint: mean survival time, dose: 400.0 mg/kg/injection, schedule: Q04DX003 (ip), vehicle: saline with Tween-80
[8] = endpoint: mean survival time, dose: 100.0 mg/kg/injection, schedule: Q01DX009 (ip), vehicle: saline with Tween-80
[9] = endpoint: mean survival time, dose: 200.0 mg/kg/injection, schedule: Q01DX009 (ip), vehicle: saline with Tween-80
[10] = endpoint: mean survival time, dose: 100.0 mg/kg/injection, schedule: Q01DX001 (ip), vehicle: saline with Tween-80
[11] = endpoint: mean survival time, dose: 200.0 mg/kg/injection, schedule: Q01DX001 (ip), vehicle: saline with Tween-80
[12] = endpoint: mean survival time, dose: 400.0 mg/kg/injection, schedule: Q01DX001 (ip), vehicle: saline with Tween-80
[13] = endpoint: mean survival time, dose: 25.0 mg/kg/injection, schedule: Q01DX009 (ip), vehicle: saline with Tween-80
[14] = endpoint: mean survival time, dose: 50.0 mg/kg/injection, schedule: Q01DX009 (ip), vehicle: saline with Tween-80
[15] = endpoint: mean survival time, dose: 400.0 mg/kg/injection, schedule: Q01DX009 (ip), vehicle: saline with Tween-80
[16] = endpoint: mean survival time, dose: 100.0 mg/kg/injection, schedule: Q04DX002 (ip), vehicle: saline with Tween-80
[17] = endpoint: mean survival time, dose: 200.0 mg/kg/injection, schedule: Q04DX002 (ip), vehicle: saline with Tween-80

With `CC(C#N)C(N)=O` (stereo not drawn) the T/C (endpoint: mean survival time, dose: 12.5 mg/kg/injection, schedule: Q01DX009 (ip), vehicle: saline) was 98 % of control, the T/C (endpoint: mean survival time, dose: 25.0 mg/kg/injection, schedule: Q01DX009 (ip), vehicle: saline) was 101 % of control and the T/C (endpoint: mean survival time, dose: 50.0 mg/kg/injection, schedule: Q01DX009 (ip), vehicle: saline) was 102 % of control.
`CC(=O)OC1C(OC(C)=O)C2C(C)(C)CCCC2(C)C2Cc3occc3C(C)C12` (stereo not drawn) was tested, and the T/C [1] was 96 % of control, the T/C [2] was 102 % of control and the T/C [3] was 98 % of control. The T/C [4] was 98 % of control, the T/C [5] was 96 % of control and the T/C [6] was 96 % of control. The T/C [7] was 91 % of control and the T/C (endpoint: mean survival time, dose: 400.0 mg/kg/injection, schedule: Q04DX003 (ip), vehicle: saline) was 96 % of control.
In the case of `COC1CCC2=C(C1)C(=O)CC1c3ccccc3CN21` (stereo not drawn), the T/C [3] is reported as 97 % of control.
In the case of `CC(=O)NCCN`, the T/C [2] is reported as 101 % of control, the T/C [4] is reported as 95 % of control and the T/C [6] is reported as 97 % of control.
In the case of `C(=N/NC1=NCCN1)/c1c2ccccc2c(/C=N\NC2=NCCN2)c2ccccc12`, the T/C (endpoint: median survival time, dose: 0.37 mg/kg/injection, schedule: Q01DX009 (ip), vehicle: suspension in saline) is reported as 152 % of control, the T/C (endpoint: median survival time, dose: 1.56 mg/kg/injection, schedule: Q01DX009 (ip), vehicle: saline) is reported as 170 % of control and the T/C (endpoint: median survival time, dose: 3.0 mg/kg/injection, schedule: Q01DX009 (ip), vehicle: suspension in saline) is reported as 172 % of control. The T/C (endpoint: median survival time, dose: 3.12 mg/kg/injection, schedule: Q01DX009 (ip), vehicle: saline) was 370 % of control, the T/C (endpoint: median survival time, dose: 6.25 mg/kg/injection, schedule: Q01DX009 (ip), vehicle: saline) was 172 % of control and the T/C (endpoint: median survival time, dose: 12.5 mg/kg/injection, schedule: Q01DX009 (ip), vehicle: saline) was 164 % of control and 180 % of control. For the same compound, the T/C (endpoint: median survival time, dose: 25.0 mg/kg/injection, schedule: Q01DX009 (ip), vehicle: saline) was 176 % of control and the T/C (endpoint: median survival time, dose: 48.0 mg/kg/injection, schedule: Q01DX009 (ip), vehicle: suspension in saline) was 113 % of control.
For `CCCCNC(=O)NCCc1ccc(OC)c(OC)c1`, the T/C [8] was 87 % of control and the T/C [9] was 89 % of control.
For `COc1cc(C2c3cc4c(c(OC5OC6CO[C@@H](c7cccs7)OC6C(O)C5O)c3C[C@@H]3COC(=O)[C@@H]23)OCO4)cc(OC)c1O` (stereo partly drawn), the T/C (endpoint: median survival time, dose: 0.8 mg/kg/injection, schedule: Q01DX005 (ip), vehicle: saline with Tween-80) was 104 % of control, the T/C (endpoint: median survival time, dose: 1.6 mg/kg/injection, schedule: Q01DX005 (ip), vehicle: saline with Tween-80) was 100 % of control and the T/C (endpoint: median survival time, dose: 3.2 mg/kg/injection, schedule: Q01DX005 (ip), vehicle: saline with Tween-80) was 107 % of control. The T/C (endpoint: median survival time, dose: 6.4 mg/kg/injection, schedule: Q01DX005 (ip), vehicle: saline with Tween-80) was 107 % of control.
With `CC1(C)CC2(OC2c2cccc(Cl)c2)C(=O)c2ccccc21` (stereo not drawn) the T/C (endpoint: mean survival time, dose: 100.0 mg/kg/injection, schedule: Q01DX009 (ip), vehicle: other) was 94 % of control, the T/C (endpoint: mean survival time, dose: 200.0 mg/kg/injection, schedule: Q01DX009 (ip), vehicle: other) was 94 % of control and the T/C (endpoint: mean survival time, dose: 400.0 mg/kg/injection, schedule: Q01DX009 (ip), vehicle: other) was 91 % of control.
`CCC(C)(O)C1CC1` (stereo not drawn) was tested, and the T/C [10] was 98 % of control, the T/C [11] was 103 % of control and the T/C [12] was 104 % of control.
In the case of `Nc1cc(Cl)cc2c1-c1ccc(Cl)cc1C2Br` (stereo not drawn), the T/C (endpoint: mean survival time, dose: 50.0 mg/kg/injection, schedule: Q01DX001 (ip), vehicle: carboxymethylcellulose (CMC)) is reported as 102 % of control, the T/C (endpoint: mean survival time, dose: 100.0 mg/kg/injection, schedule: Q01DX001 (ip), vehicle: carboxymethylcellulose (CMC)) is reported as 108 % of control and the T/C (endpoint: mean survival time, dose: 200.0 mg/kg/injection, schedule: Q01DX001 (ip), vehicle: carboxymethylcellulose (CMC)) is reported as 108 % of control. For the same compound, the T/C (endpoint: mean survival time, dose: 400.0 mg/kg/injection, schedule: Q01DX001 (ip), vehicle: carboxymethylcellulose (CMC)) was 108 % of control.
With `CCOP(=O)(N=S=O)OCC` the T/C (endpoint: mean survival time, dose: 12.5 mg/kg/injection, schedule: Q04DX003 (ip), vehicle: saline) was 100 % of control, the T/C (endpoint: mean survival time, dose: 25.0 mg/kg/injection, schedule: Q04DX003 (ip), vehicle: saline) was 103 % of control and the T/C [2] was 113 % of control.
`O=C(O)c1ccc([N+](=O)[O-])cc1[N+](=O)[O-]` was tested, and the T/C [10] was 87 % of control, the T/C [11] was 97 % of control and the T/C [12] was 91 % of control.
`[Co].[NH-]CC[NH-].[NH-]CC[NH-].[NH-]CC[NH-]` was tested, and the T/C [13] was 93 % of control, the T/C [14] was 101 % of control and the T/C [8] was 110 % of control. The T/C (endpoint: mean survival time, dose: 100.0 mg/kg/injection, schedule: Q04DX003 (ip), vehicle: saline sonified) was 104 % of control.
In the case of `COc1ccc(NC(=O)C(c2ccccc2)c2ccccc2)cc1`, the T/C [8] is reported as 105 % of control, the T/C [9] is reported as 102 % of control and the T/C [15] is reported as 92 % of control.
For `O=C(Nc1cc2ccccc2o1)N1CCOCC1`, the T/C (endpoint: mean survival time, dose: 50.0 mg/kg/injection, schedule: Q01DX001 (ip), vehicle: saline with Tween-80) was 94 % of control, the T/C [10] was 97 % of control and the T/C [11] was 100 % of control.
For `Cc1cc(N=Nc2ccc(S(=O)(=O)[O-])cc2)cc(C(=O)[O-])c1[OH2+].Cc1cc(N=Nc2ccc(S(=O)(=O)[O-])cc2)cc(C(=O)[O-])c1[OH2+].NC1CCCCC1N.[Na+].[Pt+4]`, the T/C (endpoint: median survival time, dose: 6.25 mg/kg/injection, schedule: Q04DX003 (ip), vehicle: saline with Tween-80) was 172 % of control, the T/C (endpoint: median survival time, dose: 6.25 mg/kg/injection, schedule: Q04DX003 (ip), vehicle: saline) was 172 % of control and the T/C (endpoint: median survival time, dose: 12.5 mg/kg/injection, schedule: Q04DX003 (ip), vehicle: saline with Tween-80) was 344 % of control. For the same compound, the T/C (endpoint: median survival time, dose: 12.5 mg/kg/injection, schedule: Q04DX003 (ip), vehicle: saline) was 253 % of control, the T/C (endpoint: median survival time, dose: 25.0 mg/kg/injection, schedule: Q04DX003 (ip), vehicle: saline with Tween-80) was 313 % of control and the T/C (endpoint: median survival time, dose: 25.0 mg/kg/injection, schedule: Q04DX003 (ip), vehicle: saline) was 289 % of control. The T/C (endpoint: median survival time, dose: 50.0 mg/kg/injection, schedule: Q04DX003 (ip), vehicle: saline with Tween-80) was 106 % of control.
With `COc1ccccc1C(=O)C(=O)c1ccccc1OC` the T/C [3] was 100 % of control, the T/C [5] was 96 % of control and the T/C [7] was 100 % of control.
`CCCCCC(=O)SCC(=O)OCC(=O)[C@]1(O)Cc2c(O)c3c(c(O)c2[C@@H](OC2CC(N)C(O)C(C)O2)C1)C(=O)c1c(OC)cccc1C3=O` (stereo partly drawn) was tested, and the T/C (endpoint: mean survival time, dose: 0.39 mg/kg/injection, schedule: Q01DX005 (ip), vehicle: water) was 115 % of control and 110 % of control, the T/C (endpoint: mean survival time, dose: 0.78 mg/kg/injection, schedule: Q01DX005 (ip), vehicle: water) was 116 % of control and 124 % of control and the T/C (endpoint: mean survival time, dose: 1.56 mg/kg/injection, schedule: Q01DX005 (ip), vehicle: water) was 118 % of control. The T/C (endpoint: mean survival time, dose: 6.25 mg/kg/injection, schedule: Q01DX005 (ip), vehicle: water) was 104 % of control.
For `Cc1ccc(C)c(NC(=O)c2ccc(Cl)cc2)c1`, the T/C [3] was 97 % of control, the T/C [5] was 97 % of control and the T/C [7] was 92 % of control.
`CCCCC(CC)C(=O)N1CCOCC1` (stereo not drawn) was tested, and the T/C [8] was 96 % of control, the T/C [9] was 92 % of control and the T/C [15] was 86 % of control.
For `O=c1ccn(CC(O)c2cc3ccccc3[nH]2)c(=O)[nH]1` (stereo not drawn), the T/C [16] was 112 % of control, the T/C [17] was 112 % of control and the T/C (endpoint: mean survival time, dose: 400.0 mg/kg/injection, schedule: Q04DX002 (ip), vehicle: saline with Tween-80) was 108 % of control.
In the case of `Clc1ccc2c(NCCN3CCCCCC3)nc(C(Cl)(Cl)Cl)nc2c1`, the T/C [14] is reported as 94 % of control, the T/C [1] is reported as 103 % of control and the T/C [8] is reported as 98 % of control. For the same compound, the T/C [3] was 94 % of control, the T/C [9] was 98 % of control and the T/C [5] was 92 % of control.
With `NC1CCC(=O)NC1c1ccccc1` (stereo not drawn) the T/C (endpoint: mean survival time, dose: 100.0 mg/kg/injection, schedule: Q04DX002 (ip), vehicle: saline) was 97 % of control, the T/C (endpoint: mean survival time, dose: 200.0 mg/kg/injection, schedule: Q04DX002 (ip), vehicle: saline) was 101 % of control and the T/C (endpoint: mean survival time, dose: 400.0 mg/kg/injection, schedule: Q04DX002 (ip), vehicle: saline) was 101 % of control.
For `O=C(c1ccccc1)c1cc(Cl)ccc1N1C(=O)C=CC1=O`, the T/C (endpoint: mean survival time, dose: 6.25 mg/kg/injection, schedule: Q01DX009 (ip), vehicle: saline with Tween-80) was 94 % of control, the T/C (endpoint: mean survival time, dose: 12.5 mg/kg/injection, schedule: Q01DX009 (ip), vehicle: saline with Tween-80) was 95 % of control and the T/C [13] was 100 % of control.
With `CC(C)(C)c1cc(N)cc(C(C)(C)C)c1O` the T/C (endpoint: mean survival time, dose: 50.0 mg/kg/injection, schedule: Q04DX002 (ip), vehicle: saline with Tween-80) was 91 % of control, the T/C [16] was 98 % of control and the T/C [17] was 98 % of control.
